Earlier results, collected in US9044417B2, “Mineral, nutritional, cosmetic, pharmaceutical, and agricultural compositions and methods for producing the same” (Core Intellectual Properties Holdings, LLC, priority 2003, dated 2015).

Details: aqueous solutions of glycolic acid, pH=3.0; general statement for comparison

## O=C(O)CO [glycolic acid]
  sting or burning when applied to freshly shaven skin: will sting or burn
